In series [1] the test system is PC-3. Nature of the series: Antiproliferative activity against human PC-3 cells assessed as inhibition of cell growth incubated for 48 hrs by MTT assay. The following applies: PC-3, 48 h. It counts as functional, cell-based. In general terms: Tetrazolium assays rely on reduction of a dye to a coloured formazan, in cell work by metabolically active cells.
Series [2] relates to HT-29. Nature of the series: Antiproliferative activity against human HT-29 cells assessed as inhibition of cell growth incubated for 48 hrs by MTT assay. It counts as functional, cell-based. The note with it: HT-29, 48 h.
Series [3] in a line: Cytotoxicity against human L02 cells assessed as inhibition of cell growth incubated for 48 hrs by MTT assay. It counts as toxicity, cell-based.
In series [4] the test system is MDA-MB-231. Nature of the series: Antiproliferative activity against human MDA-MB-231 cells assessed as inhibition of cell growth incubated for 48 hrs by MTT assay. It counts as functional, cell-based. The note with it: MDA-MB-231, 48 h.
The test system of series [5] is HepG2. Nature of the series: Antiproliferative activity against human HepG2 cells assessed as inhibition of cell growth incubated for 48 hrs by MTT assay. It counts as functional, cell-based. The note with it: HepG2, 48 h.
The test system of series [6] is A549. Nature of the series: Antiproliferative activity against human A549 cells assessed as inhibition of cell growth incubated for 48 hrs by MTT assay. The note with it: A549, 48 h. In kind it is functional, cell-based.
Series [7] concerns MCF7. Nature of the series: Antiproliferative activity against human MCF7 cells assessed as inhibition of cell growth incubated for 48 hrs by MTT assay. It counts as functional, cell-based. The note with it: MCF7, 48 h.

Structures are written as SMILES.

The term IC50 denotes the concentration at which inhibition is half-maximal.

Turning to `COc1ccc2[nH]c3c(C(=O)/C=C/c4ccc5c(c4)OCCO5)nccc3c2c1`, the 50% inhibitory concentration (IC50) in series [1] was 3.79 µM; in series [2], above 20 µM; in series [4] it was 18.1 µM; in series [5], 15.6 µM; in series [6] it was above 20 µM; in series [7] it was 14.5 µM. For the same compound, in series [3], the half-inhibitory concentration (IC50) at 48 h was above 20 µM.
Regarding `COc1ccc2[nH]c3c(C(=O)/C=C/c4ccc(F)c(OC)c4)nccc3c2c1`, the IC50 in series [1] was 0.99 µM; in series [2], 2.47 µM; in series [4], 1.41 µM; in series [5], 6.33 µM; in series [6] it was 6.48 µM; in series [7] it was 0.77 µM. In addition, in series [3], the IC50 at 48 h was above 20 µM.
On to `O=C(/C=C/c1cc(Cl)ccc1Cl)c1nccc2c1[nH]c1ccccc12`, for which the IC50 in series [1] came out at 1.4 µM; in series [2], 3.14 µM; in series [4] it was 2.77 µM; in series [5], 3.37 µM; in series [6] it was 6.78 µM; in series [7] it was 0.59 µM. The IC50 at 48 h in series [3] was 9.91 µM.
For `COc1ccc2[nH]c3c(C(=O)/C=C/c4ccc(Br)cc4)nccc3c2c1`, the IC50 was 4.18 µM in series [1]; 7.74 µM in series [2]; 5.67 µM in series [4]; 15.7 µM in series [5]; above 20 µM in series [6]; 8.45 µM in series [7]. Besides, in series [3], the half-maximal inhibitory concentration (IC50) at 48 h is above 20 µM.
Consider `O=C(/C=C/c1cccc(Br)c1)c1nccc2c1[nH]c1ccccc12`, for which the IC50 in series [1] amounted to 2.69 µM; in series [2], 7.24 µM; in series [4] it was 6.44 µM; in series [5], 5.89 µM; in series [6] it was 11.8 µM; in series [7] it was 4.99 µM. The IC50 at 48 h in series [3] turned out to be 14.3 µM.
For the compound `O=C(/C=C/c1cccc(I)c1)c1nccc2c1[nH]c1ccccc12`, the half-inhibitory concentration (IC50) in series [1] was above 10 µM; in series [2] it was above 20 µM; in series [4], 5.17 µM; in series [5], above 20 µM; in series [6] it was above 20 µM; in series [7] it was 1.6 µM. In series [3], the IC50 at 48 h was above 20 µM.
As to `COc1cccc(OC)c1/C=C/C(=O)c1nccc2c1[nH]c1ccccc12`, the IC50 in series [1] was above 10 µM; in series [2], above 20 µM; in series [4] it was above 20 µM; in series [5], above 20 µM; in series [6], above 20 µM; in series [7] it was 10.5 µM. The IC50 at 48 h in series [3] was above 20 µM.
`COc1ccc2[nH]c3c(C(=O)/C=C/c4ccc(OC)c(OC)c4OC)nccc3c2c1`: the IC50 was above 10 µM in series [1]; 6.08 µM in series [2]; above 20 µM in series [4]; above 20 µM in series [5]; 7.1 µM in series [6]; 6.1 µM in series [7]. Moreover, in series [3], the IC50 at 48 h is above 20 µM.
`COc1ccc2[nH]c3c(C(=O)/C=C/c4c(C)cccc4C)nccc3c2c1`: the IC50 is above 10 µM in series [1]; above 20 µM in series [2]; above 20 µM in series [4]; above 20 µM in series [5]; above 20 µM in series [6]; 10.1 µM in series [7]. The IC50 at 48 h in series [3] is above 20 µM.
As to `COc1ccc(/C=C/C(=O)c2nccc3c2[nH]c2ccccc23)cc1`, the IC50 in series [1] is above 10 µM; in series [2], 19 µM; in series [4], above 20 µM; in series [5], above 20 µM; in series [6], above 20 µM; in series [7] it was 17.3 µM. The IC50 at 48 h in series [3] is above 20 µM.
In the case of `COc1ccc2[nH]c3c(C(=O)/C=C/c4c(OC)cccc4OC)nccc3c2c1`, the 50% inhibitory concentration (IC50) in series [1] is above 10 µM; in series [2], 13.6 µM; in series [4], 12 µM; in series [5], 7.13 µM; in series [6], 15.3 µM; in series [7], 5.71 µM. Besides, in series [3], the concentration for half-maximal inhibition (IC50) at 48 h was above 20 µM.
Consider `COc1ccc2[nH]c3c(C(=O)/C=C/c4ccc(Cl)c([N+](=O)[O-])c4)nccc3c2c1`, for which the IC50 in series [1] was above 10 µM; in series [2], above 20 µM; in series [4], 2.99 µM; in series [5] it was 7.72 µM; in series [6] it was 5.72 µM; in series [7], above 20 µM. Besides, the 50% inhibitory concentration (IC50) at 48 h in series [3] is above 20 µM.
As to `COc1ccc2[nH]c3c(C(=O)/C=C/c4cccc(Br)c4)nccc3c2c1`, the half-maximal inhibitory concentration (IC50) in series [1] was above 10 µM; in series [2] it was 0.49 µM; in series [4] it was above 20 µM; in series [5] it was above 20 µM; in series [6], above 20 µM; in series [7], above 20 µM. Further, the half-inhibitory concentration (IC50) at 48 h in series [3] is above 20 µM.
Regarding `COc1cc(/C=C/C(=O)c2nccc3c2[nH]c2ccccc23)ccc1F`, the IC50 amounted to 1.02 µM in series [1]; 10.9 µM in series [2]; 3.25 µM in series [4]; 5.7 µM in series [5]; 3.07 µM in series [6]; 2.38 µM in series [7]. Besides, the half-maximal inhibitory concentration (IC50) at 48 h in series [3] is above 20 µM.
With `COc1ccc2[nH]c3c(C(=O)/C=C/c4cc(OC)c(OC)cc4Br)nccc3c2c1`, the IC50 was above 10 µM in series [1]; 11.3 µM in series [2]; above 20 µM in series [4]; above 20 µM in series [5]; 4.51 µM in series [6]; 8.05 µM in series [7]. The IC50 at 48 h in series [3] was above 20 µM.
As to `COc1ccc2[nH]c3c(C(=O)/C=C/c4ccc([N+](=O)[O-])cc4)nccc3c2c1`, the half-inhibitory concentration (IC50) in series [1] was above 10 µM; in series [2], above 20 µM; in series [4], above 20 µM; in series [5] it was above 20 µM; in series [6], above 20 µM; in series [7], 15.5 µM. Moreover, the IC50 at 48 h in series [3] is above 20 µM.
Consider `COc1ccc2[nH]c3c(C(=O)/C=C/C=C/c4ccccc4)nccc3c2c1`, for which the IC50 in series [1] was above 10 µM; in series [2], above 20 µM; in series [4], above 20 µM; in series [5], 18.9 µM; in series [6], above 20 µM; in series [7] it was 17.5 µM. Further, in series [3], the 50% inhibitory concentration (IC50) at 48 h was above 20 µM.
As for `O=C(/C=C/c1ccc(Br)cc1)c1nccc2c1[nH]c1ccccc12`, the half-maximal inhibitory concentration (IC50) was above 10 µM in series [1]; 9.73 µM in series [2]; 9.21 µM in series [4]; above 20 µM in series [5]; 12.2 µM in series [6]; 3.54 µM in series [7]. Besides, in series [3], the 50% inhibitory concentration (IC50) at 48 h is above 20 µM.
Turning to `COc1ccc2[nH]c3c(C(=O)/C=C/c4ccc(Cl)c(C)c4)nccc3c2c1`, the concentration for half-maximal inhibition (IC50) in series [1] is above 10 µM; in series [2], 1.89 µM; in series [4], 6.45 µM; in series [5] it was 2.74 µM; in series [6] it was 7.49 µM; in series [7], 4.38 µM. For the same compound, in series [3], the IC50 at 48 h is above 20 µM.
Take `CCc1ccc(/C=C/C(=O)c2nccc3c2[nH]c2ccccc23)cc1`: the IC50 in series [1] is above 10 µM; in series [2] it was above 20 µM; in series [4], above 20 µM; in series [5], above 20 µM; in series [6] it was above 20 µM; in series [7] it was above 20 µM. Besides, in series [3], the half-maximal inhibitory concentration (IC50) at 48 h is above 20 µM.
On to `COc1ccc2[nH]c3c(C(=O)/C=C/c4ccccc4Cl)nccc3c2c1`, for which the IC50 in series [1] was above 10 µM; in series [2], 0.52 µM; in series [4], 1.43 µM; in series [5], above 20 µM; in series [6] it was above 20 µM; in series [7], above 20 µM. In series [3], the half-maximal inhibitory concentration (IC50) at 48 h is above 20 µM.
On to `COc1ccc(/C=C/C(=O)c2nccc3c2[nH]c2ccccc23)c(OC)c1OC`, for which the IC50 in series [1] was above 10 µM; in series [2], above 20 µM; in series [4], above 20 µM; in series [5], 11.6 µM; in series [6] it was above 20 µM; in series [7] it was above 20 µM. Besides, the half-maximal inhibitory concentration (IC50) at 48 h in series [3] was above 20 µM.
As for `O=C(/C=C/c1ccccc1Cl)c1nccc2c1[nH]c1ccccc12`, the IC50 in series [1] came to 2.39 µM; in series [2] it was 12.5 µM; in series [4], 3.43 µM; in series [5], 2.8 µM; in series [6], 5.37 µM; in series [7] it was 3.35 µM. Moreover, in series [3], the IC50 at 48 h stood at 11.4 µM.
`COc1ccc2[nH]c3c(C(=O)/C=C/c4cc(Cl)ccc4Cl)nccc3c2c1`: the IC50 in series [1] is above 10 µM; in series [2], 0.68 µM; in series [4], 8.13 µM; in series [5], above 20 µM; in series [6] it was above 20 µM; in series [7] it was 7.95 µM. Moreover, in series [3], the IC50 at 48 h was above 20 µM.
Regarding `O=C(/C=C/c1cc(F)c(F)c(F)c1)c1nccc2c1[nH]c1ccccc12`, the IC50 amounted to 1.19 µM in series [1]; 0.89 µM in series [2]; 2.05 µM in series [4]; 0.96 µM in series [5]; 5.73 µM in series [6]; 0.88 µM in series [7]. In addition, the IC50 at 48 h in series [3] was 17.8 µM.
Turning to `COc1ccc2[nH]c3c(C(=O)/C=C/c4cccc(I)c4)nccc3c2c1`, the IC50 in series [1] was above 10 µM; in series [2], 2.34 µM; in series [4] it was 8.71 µM; in series [5], above 20 µM; in series [6], above 20 µM; in series [7] it was 1.58 µM. Besides, the IC50 at 48 h in series [3] is above 20 µM.
Consider `O=C(/C=C/c1ccc2c(c1)OCCO2)c1nccc2c1[nH]c1ccccc12`, for which the IC50 was above 10 µM in series [1]; above 20 µM in series [2]; 15.2 µM in series [4]; 13.2 µM in series [5]; above 20 µM in series [6]; above 20 µM in series [7]. For the same compound, the IC50 at 48 h in series [3] was above 20 µM.
As to `O=C(/C=C/c1ccc([N+](=O)[O-])cc1)c1nccc2c1[nH]c1ccccc12`, the IC50 was above 10 µM in series [1]; 3.96 µM in series [2]; 0.62 µM in series [4]; above 20 µM in series [5]; above 20 µM in series [6]; 5.87 µM in series [7]. For the same compound, the concentration for half-maximal inhibition (IC50) at 48 h in series [3] is above 20 µM.
